This is an account of results in patent US20070010488A1, “Compounds for modulating cell proliferation” (priority 2005, published 2007).

One may read the IC50 as the concentration that inhibits the measured activity by half. Low values mean greater potency in that assay, high ones weaker potency in that assay.

Common to all, as to assay type: cell-based
Details in all cases: Homo sapiens, 72 hours

One experiment relates to OCI-AML2 (AML). The experiment in a line: Alamar Blue cell viability assay, OCI-AML2. The protocol:
(§1) Each test compound was weighed between the ranges of 0.5-2.0 mg, and then dissolved in a specified volume of DMSO to produce a solution of 10 mM. Appropriate dilutions in cell culture medium were made to produce a stock solution of 400 μM. All subsequent dilutions were also done in cell culture medium. This stock solution was then used for further dilutions to produce the initial concentration to be added to the 50 μL and 450 μL of cells in the 96-well and the 48-well microtiter plates, respectively:
(§2) The initial concentration for cells that were cultured in 50 μL 96-well plates was 40 μM. Once 50 μL of this test solution was added to the cells, this then produced a final dilution of 1:2, giving the desired concentration of 20 μM. Further 1:2 dilutions were made until the desired concentration of […] was reached.
(§3) Compound 1 was used as positive control at concentrations of 1 μM and 3 μM. […] C1 and OCI-AML2 and RPMI8226 cell culture media were assayed by addition of 20 μL of Alamar Blue reagent and incubated for 4 hours before reading. […]
(§4) 50 μL of cell culture medium containing the test compound was added to each well twenty four hours after seeding. […] Proliferation of cells was assessed using the fluorimetric Alamar Blue (CellTiter Blue) test and cell counting.
(§5) For the Alamar Blue assay, untreated cells were used as growth controls. Data were assessed in duplicates. […]

Another experiment relates to MOLM-13 (AML). The experiment is described as follows: Alamar Blue cell viability assay, MOLM-13. The protocol:
as §1
(§6) The initial concentration for cells that were cultured in 50 μL 96-well plates was 40 μM. […]
as §4
(§7) For the Alamar Blue assay, untreated cells were used as growth controls. Data were assessed in duplicates. […] The Alamar Blue cell viability assay was used to determine the IC50 concentrations for the inhibition of cell proliferation or induction of cell death by the ets articles as well as the reference Compound A. Primary data from all assays were plotted for each test compound, cell system and test concentration, with the y-axis representing the readout for cell proliferation/viability and the x-axis representing the compound concentration (μM). […]
A general note: Resazurin is reduced to fluorescent resorufin, in cell work by metabolically active cells.

The test system of another experiment is KASUMI-1 (AML). The experiment in a line: Alamar Blue cell viability assay, KASUMI-1. The protocol:
as §1, §6, §4, §7

The next experiment has as its system SKM-1 (AML). The experiment is described as follows: Alamar Blue cell viability assay, SKM-1. The protocol:
as §1, §6, §4, §7

Another experiment has as its system MV4-11 (AML). The experiment is described as follows: Alamar Blue cell viability assay, MV4-11. Here is the method:
as §1, §6, §4, §7

In another experiment the test system is C1 (T-ALL). The experiment in a line: Alamar Blue cell viability assay, C1. Here is the method:
as §1, §2, §3, §4, §5

In another experiment the test system is CCRF-CEM (T-ALL). The experiment is described as follows: Alamar Blue cell viability assay, CCRF-CEM. Here is the method: as §1, §6, §4, §7
In another experiment the test system is RS4-11 (B-ALL). The experiment is described as follows: Alamar Blue cell viability assay, RS4-11. The protocol:
as §1, §6, §4, §7

In the case of `CCN1C/C(=C\c2cc(OC)c(OC)c(OC)c2)C(=O)/C(=C/c2cc(OC)c(OC)c(OC)c2)C1` [Compound A], the half-inhibitory concentration (IC50) in the experiment with OCI-AML2 (AML) amounted to 1030 nM; in the experiment on MOLM-13 (AML), 1900 nM; in the experiment on KASUMI-1 (AML), 560 nM; in the experiment with SKM-1 (AML) it was 560 nM; in the experiment on MV4-11 (AML), 220 nM; in the experiment on C1 (T-ALL), 180 nM. Further, the half-inhibitory concentration (IC50) turned out to be 1180 nM in the experiment with CCRF-CEM (T-ALL) and 450 nM in the experiment on RS4-11 (B-ALL).
